Earlier results in patent US20110039930A1 (Emisphere Technologies, Inc., priority 2009, published 2011).

Details: bleeding, ulceration, perforation of the stomach or intestines

COc1ccc2cc(C(C)C(=O)O)ccc2c1 (stereo not shown) [Naproxen, 2-(6-methoxynaphthalen-2-yl)propanoic acid]
gastrointestinal adverse events: increased risk of serious gastrointestinal adverse events
